# Experimental data published in PMC10394516, “The pharmacokinetic profile of brensocatib and its effect on pharmacodynamic biomarkers including NE, PR3, and CatG in various rodent species” (Frontiers in Pharmacology, 2023).
# Key:
# [1] = Plasma PK of brensocatib, BID vs QD oral dosing, Sprague Dawley rats; format: in vivo; details: both sexes, rat; for AUC(0-t): first 24 h
# Protocol: (§1) A dose frequency study was performed in male and female mice (C57BL/6 & BALB/c) and in male and female rats (Sprague Dawley & Wistar) investigating twice daily (BID) versus once daily (QD) brensocatib administration.
# (§2) Briefly, animals were weighed and randomized into different treatment groups. In total, three different dosing levels of brensocatib were tested in each species and strain; each QD dosing level was equivalent to 1.5-times the matching daily BID dose. For BID dosing, the second daily dose was administered 8-h post the morning dose. C57BL/6 mice were dosed either BID or QD for 7 consecutive days at 0/0, 0.5/0.75, 2/3, and 20/30 mg/kg/day (BID/QD). BALB/c mice were dosed for 7 consecutive days at 0/0, 0.2/0.3, 2/3, and 20/30 mg/kg/day (BID/QD). SD rats were dosed for 9 consecutive days at 0/0, 0.2/0.3, 2/3, and 20/30 mg/kg/day (BID/QD). Wistar rats were dosed for 7 consecutive days at 0/0, 0.2/0.3, 2/3, and 20/30 mg/kg/day (BID/QD).
# (§3) For sparse PK analysis via LC-MS/MS, plasma was collected from animals during the first 24 h of dosing at prescribed timepoints. The timepoints included 1, 3, 8, and 24 h post initial dose for QD groups, and 1, 3, 8, 9, 11, and 24 h post initial dose for BID groups. Note that the 8- and 24-h plasma samples were prior to the afternoon dose for BID groups and prior to the second day dose for all groups, respectively. See section Quantification of Plasma Brensocatib Concentrations for details.
# (§4) Blood was collected via the tail-vein technique and centrifuged to separate and collect the plasma. The resulting plasma samples were stored at −20°C or lower until LC-MS/MS analysis.
# (§5) The plasma concentration of brensocatib was quantified by liquid chromatography, tandem mass spectrometry (LC-MS/MS), a Sciex API6500 mass spectrometer (SCIEX, Framingham, MA). Two brensocatib stock solutions were prepared, one for the preparation of the 8-point standard (STD) curve spiking solutions and the other for the preparation of the quantitative control spiking solutions (QCs) at three levels. The STD curve and QCs were prepared by 2% spiking from the spiking solutions into mouse or rat plasma. The samples were extracted using a protein precipitation method, where 10 µL of sample was mixed with 100 µL of internal standard working solution (100 ng/mL ^6C13-brensocatib in methanol), vortexed for 5 s, and centrifuged at 21,130 × g at 4°C for 15 min. The supernatant was mixed with an equal volume of water and 10 μL was injected into a Phenomenex Kinetex Biphenyl column (3.0 mm × 50 mm; 2.6 μm; 65°C; 0.8 mL/min) with an elution gradient consisting of mobile phase A (10 mM ammonium formate) and mobile phase B (methanol) over 2 min from 5% to 95% B. The mass spectrometer was equipped with an atmospheric-pressure chemical ionization source operating in positive mode.
# (§6) Individual plasma concentrations were plotted and the area under the curve (AUC) was calculated using the trapezoid method. The elimination rate constant (k e ) was calculated as the negative natural log of the plasma concentration over time (Eq. 1) starting at the max concentration (C max) after the most recent dose to the last measurable plasma concentration between doses. The calculated k e was used to define the half-life (t 1/2 ) based on Eq. 2; where 0.693 is the natural log of 2 and assumes a first-order reaction. ke=−ln∆C/∆t (1) t1/2=0.693/ke (2)
# [2] = Plasma PK of brensocatib, BID vs QD oral dosing, Wistar rats; format: in vivo; details: both sexes, rat; for half-life: Wistar, po; for AUC(0-t): first 24 h
# Protocol: as §1, §2, §3, §4, §5, §6
smiles,measurement,setting,value
Cn1c(=O)oc2ccc(-c3ccc(C[C@@H](C#N)NC(=O)[C@@H]4CNCCCO4)cc3)cc21 [brensocatib],half-life,"[1]; Sprague Dawley, Wistar, oral, rats (both strains), across BID and QD regimens, sparse PK, read-out: half-life (overall) (converted)",~8 h
same,AUC(0-t),"[1]; Sprague-Dawley, SD rats, oral BID, 0.2 mg/kg/day, read-out: AUC0–24h",124 ± 81 ng·h/mL
same,AUC(0-t),"[1]; Sprague-Dawley, SD rats, oral BID, 0.2 mg/kg/day, read-out: AUC(0–24)",0.29 ± 0.19 µM·h
same,AUC(0-t),"[1]; Sprague-Dawley, SD rats, oral BID, 2 mg/kg/day, read-out: AUC0–24h",4730 ± 421 ng·h/mL
same,AUC(0-t),"[1]; Sprague-Dawley, SD rats, oral BID, 2 mg/kg/day, read-out: AUC(0–24)",11.2 ± 1 µM·h
same,AUC(0-t),"[1]; Sprague-Dawley, SD rats, oral BID, 20 mg/kg/day, read-out: AUC0–24h",72600 ng·h/mL
same,AUC(0-t),"[1]; Sprague-Dawley, SD rats, oral BID, 20 mg/kg/day, read-out: AUC(0–24)",173 ± 8.09 µM·h
same,AUC(0-t),"[1]; Sprague-Dawley, SD rats, oral QD, 0.3 mg/kg/day, read-out: AUC0–24h",269 ± 128 ng·h/mL
same,AUC(0-t),"[1]; Sprague-Dawley, SD rats, oral QD, 0.3 mg/kg/day, read-out: AUC(0–24)",0.64 ± 0.3 µM·h
same,AUC(0-t),"[1]; Sprague-Dawley, SD rats, oral QD, 3 mg/kg/day, read-out: AUC0–24h",11100 ng·h/mL
same,AUC(0-t),"[1]; Sprague-Dawley, SD rats, oral QD, 3 mg/kg/day, read-out: AUC(0–24)",26.39 ± 0.25 µM·h
same,AUC(0-t),"[1]; Sprague-Dawley, SD rats, oral QD, 30 mg/kg/day, read-out: AUC0–24h",104000 ng·h/mL
same,AUC(0-t),"[1]; Sprague-Dawley, SD rats, oral QD, 30 mg/kg/day, read-out: AUC(0–24)",248 ± 59.5 µM·h
same,half-life,"[1]; Sprague-Dawley, po, 0.2 mg/kg/day, SD rats, oral BID, 0.2 mg/kg/day, evening dose, read-out: t1/2, PM dose (converted)",0.55 ± 0.02 h
same,half-life,"[1]; Sprague-Dawley, po, 0.3 mg/kg/day, SD rats, oral QD, 0.3 mg/kg/day, read-out: t1/2, AM dose (converted)",5.36 ± 2.38 h
same,half-life,"[1]; Sprague-Dawley, po, 2 mg/kg/day, SD rats, oral BID, 2 mg/kg/day, evening dose, read-out: t1/2, PM dose (converted)",7.42 ± 1.16 h
same,half-life,"[1]; Sprague-Dawley, po, 2 mg/kg/day, SD rats, oral BID, 2 mg/kg/day, morning dose, read-out: t1/2, AM dose (converted)",13.5 ± 9.16 h
same,half-life,"[1]; Sprague-Dawley, po, 3 mg/kg/day, SD rats, oral QD, 3 mg/kg/day, read-out: t1/2, AM dose (converted)",4.46 ± 0.37 h
same,half-life,"[1]; Sprague-Dawley, po, 20 mg/kg/day, SD rats, oral BID, 20 mg/kg/day, evening dose, read-out: t1/2, PM dose (converted)",4.03 ± 0.44 h
same,half-life,"[1]; Sprague-Dawley, po, 20 mg/kg/day, SD rats, oral BID, 20 mg/kg/day, morning dose, read-out: t1/2, AM dose (converted)",14.1 ± 1.55 h
same,half-life,"[1]; Sprague-Dawley, po, 30 mg/kg/day, SD rats, oral QD, 30 mg/kg/day, read-out: t1/2, AM dose (converted)",3.88 ± 0.04 h
same,half-life,"[2]; 0.2 mg/kg/day, oral BID, 0.2 mg/kg/day, evening dose, read-out: t1/2, PM dose (converted)",6.45 ± 0.55 h
same,half-life,"[2]; 0.2 mg/kg/day, oral BID, 0.2 mg/kg/day, morning dose, read-out: t1/2, AM dose (converted)",5.48 ± 1.76 h
same,half-life,"[2]; 0.3 mg/kg/day, oral QD, 0.3 mg/kg/day, read-out: t1/2, AM dose (converted)",34.3 ± 20.3 h
same,half-life,"[2]; 2 mg/kg/day, oral BID, 2 mg/kg/day, evening dose, read-out: t1/2, PM dose (converted)",4.99 ± 0.33 h
same,half-life,"[2]; 2 mg/kg/day, oral BID, 2 mg/kg/day, morning dose, read-out: t1/2, AM dose (converted)",10.2 ± 1.47 h
same,half-life,"[2]; 3 mg/kg/day, oral QD, 3 mg/kg/day, read-out: t1/2, AM dose (converted)",5.14 ± 0.5 h
same,half-life,"[2]; 20 mg/kg/day, oral BID, 20 mg/kg/day, evening dose, read-out: t1/2, PM dose (converted)",4.33 ± 0.16 h
same,half-life,"[2]; 20 mg/kg/day, oral BID, 20 mg/kg/day, morning dose, read-out: t1/2, AM dose (converted)",7.81 ± 1.38 h
same,half-life,"[2]; 30 mg/kg/day, oral QD, 30 mg/kg/day, read-out: t1/2, AM dose (converted)",4.41 ± 0.18 h
same,AUC(0-t),"[2]; oral BID, 0.2 mg/kg/day, read-out: AUC0–24h",377 ± 78 ng·h/mL
same,AUC(0-t),"[2]; oral BID, 0.2 mg/kg/day, read-out: AUC(0–24)",0.9 ± 0.18 µM·h
same,AUC(0-t),"[2]; oral BID, 2 mg/kg/day, read-out: AUC0–24h",9820 ± 1820 ng·h/mL
same,AUC(0-t),"[2]; oral BID, 2 mg/kg/day, read-out: AUC(0–24)",23.4 ± 4.32 µM·h
same,AUC(0-t),"[2]; oral BID, 20 mg/kg/day, read-out: AUC0–24h",173000 ng·h/mL
same,AUC(0-t),"[2]; oral BID, 20 mg/kg/day, read-out: AUC(0–24)",412 ± 89.6 µM·h
same,AUC(0-t),"[2]; oral QD, 0.3 mg/kg/day, read-out: AUC0–24h",1040 ± 291 ng·h/mL
same,AUC(0-t),"[2]; oral QD, 0.3 mg/kg/day, read-out: AUC(0–24)",2.46 ± 0.69 µM·h
same,AUC(0-t),"[2]; oral QD, 3 mg/kg/day, read-out: AUC0–24h",11700 ng·h/mL
same,AUC(0-t),"[2]; oral QD, 3 mg/kg/day, read-out: AUC(0–24)",27.9 ± 5.53 µM·h
same,AUC(0-t),"[2]; oral QD, 30 mg/kg/day, read-out: AUC0–24h",266000 ng·h/mL
same,AUC(0-t),"[2]; oral QD, 30 mg/kg/day, read-out: AUC(0–24)",634 ± 52.4 µM·h
